For orientation: pIC50 means the negative decadic logarithm of the IC50, by convention in mol/L.

One data set relates to human platelets. Format: cell-based. How it is done: The cytoplasmic free Ca^2+ concentration ([Ca^2+ ]i) was measured using the fluorescent Ca^2 + indicator fura-2 (Molecular Probes, Inc., Eugene, Oreg.). Gel filtered platelets in Hepes-Tyrode's buffer were loaded with fura-2 by incubation at 37° C. with 1 μM fura-2/acetoxymethyl ester for 45 min according to the method of Rasmussen et al., J. Biol. Chem. 268, 14322 (1993). The labeled platelets were then re-gel filtered to remove any excess probe. Aliquots of the labeled platelet suspension were transferred into a quartz cuvette with a magnetic stirrer, which was then placed in a thermostatically controlled chamber at 37° C. in a fluorescence spectrophotometer (Dual Wave Length Shimazdu SP5000 Spectrofluorometer, Shimazdu USA, Pittsburgh, Pa.). Reagents were directly added to the cuvette. The excitation wave lengths varied between 340 and 380 nm. The fluorescence was measured by recording emitted light at 510 nm as reported by Fisher et al, Mol. Pharm. 35, 195 (1989). The minimum emission was determined on a 20 mM digitonin, 10 mM EGTA solubilized platelet sample; maximum emission was determined on the same sample with 10 mM Ca^2+ added. The intraplatelet free Ca^2+ concentration was calculated by the method of Grykiewicz et al., J. Biol. Chem. 260, 3440 (1985). The ratio of the fluorescence readings was calculated as R=340/380 nm and processed according to the equation [Ca^2+ ]i =KD ((R-Rmin)/Rmax -R))(Sf2 /Sb2) to determine the intraplatelet free Ca^2+ concentration. The KD for fura-2 was assumed to be 224 nM. Rmax and Rmin are the maximum and minimum fluorescence ratios measured at the end of the experiment, respectively; Sf2 and Sb2 are the fluorescence values at 380 nm in the absence and presence of saturating [Ca^2+ ], respectively.

The subject of a further data set is platelets. In kind it is cell-based, human. Particulars: for inhibition of aggregation / inhibition of secretion: peptide 1 mM. The procedure: Fresh whole blood was collected and mixed with 0.013 M sodium citrate and platelet-rich plasma was prepared according to the method of Meloni et al., J. Biol. Chem. 266, 6786, 1991. Washed platelets were prepared by gel filtration over Sepharose 2B columns in Hepes-Tyrode's buffer (0.137 M NaCl, 3 mM KCl, 0.4 mM Na H2 PO4, 12 mM NaHCO3, 1 mM MgCl2, 14.7 mM Hepes containing 20 mM glucose and 0.2% bovine serum albumin, pH 7.35). Platelets for aggregation and secretion studies were incubated according to the method of Schmaier et al., Blood 56, 1013, 1980 with 5-[^14 C]hydroxytryptamine for 30 min at 37° C. The washed platelets (2×10^8 /ml, final concentration radiolabeled with 5-[^14 C]hydroxytryptamine) were added to a cuvette of an aggregometer (Chronolog Corp., Havertown, Pa.), standardized using the protocol of Meloni et al., supra. After the addition of ZnCl2, final concentration 50 μM, purified HK (1 μM) or various concentrations of the peptides (0.1 to 3 mM) or buffer alone was added to the cuvette. Once the baseline stabilized, α-thrombin [0.125 U/ml (1 nM) final concentration] was then added to initiate platelet activation. Stirred platelets were allowed to incubate with o-thrombin and additions for 1 min. In other experiments, platelets were stimulated with TRAP (0.625 to 2.5 μM), ADP (1-5 μM)(Sigma), collagen (1.25 μg/ml) (Horm, Munich, Germany), or U-46619 (1 μM)(Calbiochem Behring, San Diego, Calif.). Additional experiments were performed with washed platelets stimulated with γ-thrombin (1 nM) in the presence of human fibrinogen (100 mg/dl). Both γ-thrombin and human fibrinogen were purchased from Enzyme Research Laboratories, South Bend, Ind. At the conclusion of the incubation, the entire platelet sample was centrifuged at 10,900 xg (Model E, Beckman Instruments, Palo Alto, Calif.) over a 0.135 mM formaldehyde, 5 mM EDTA solution (1 part of formaldehyde-EDTA to 4 parts of platelet suspension) and stored on ice until an aliquot of the supernatant was assayed for 5-[^14 C]hydroxytryptamine secretion. Percent secretion was determined by the ratio of the loss of 5-[^14 C]hydroxytryptamine in the supernatant of the agonist-treated specimen to the loss of 5-[^14 C]hydroxytryptamine in the supernatant of the platelet lysate after the value of the control supernatant (i.e., the level of 5-[^14 C]hydroxytryptamine in a unstimulated sample) was subtracted from both.

The next data set addresses α-thrombin (Homo sapiens, UniProt P00734). Put plainly: α-thrombin cleavage of thrombin receptor peptide NAT12 (HPLC). In kind it is biochemical. Particulars: peptide 1 mM, 8 nM α-thrombin. How it is done: A further study was performed to determine whether BK analogs prevent α-thrombin from cleaving the thrombin receptor reported by Vu et al., Cell 64, 1057 (1991). A peptide, NAT12 (SEQ ID NO:2), which spans amino acids […] of the α-thrombin cleavage site on the thrombin receptor, was used to determine whether the BK analogs described herein blocked α-thrombin cleavage of the cloned receptor.
The cleavage study was performed according to the method of Molino et al., J. Biol. Chem. 270,11168(1995),inwhichNAT12(SEQ ID NO:2) was dissolved in a solution of 0.01 M NaH2 PO4 and 0.15 M NaCl, pH 7.4. […] Following incubation, each mixture was separated by applying the mixture to a Vyadec C-18 HPLC column in 0.1% trifluoroacetic acid and eluting the mixture with a gradient from 0% to 100% of 80% MeCN and 0.1% trifluoroacetic acid. The size of the separated products were confirmed by mass spectrometry.

Data set [1] can be described thus: rabbit clearance study (plasma antigen by ELISA). In kind it is in vivo, New Zealand white rabbits. How it is done: (§1) Clearance studies have been performed in New Zealand white rabbits with BK analog SEQ ID NO:19. White rabbits weighing between 2.0 and 2.5 kg were premedicated according to the method of Michelson et al., J. Mol. Cell Cardiol. 20, 547 (1988) with 10 mg/kg 1 M xylazine and 10 mg/kg 1 M ketamine. After tracheostomy, intubation, and positive pressure ventilation done with room air (Harvard instruments), stage III surgical anesthesia was maintained with 20 mg/ml of intravenous pentobarbital. A carotid artery and a jugular vein were then exposed. A catheter was inserted into the exposed carotid artery for withdrawal of blood samples and monitoring the animal's blood pressure (Gould, Inc., Cardiovascular Products, Oxnard, Calif.). In a similar manner, a catheter was inserted into the exposed jugular vein for administering the anesthetic and BK analog SEQ ID NO:19.
(§2) For the clearance study, a single bolus of BK analog SEQ ID NO:19 was injected. The amount of BK analog SEQ ID NO:19 injected was calculated from the weight of the animal such that the blood volume was 1 mM with peptide. For example: for a 2.5 kg rabbit, 7% of its weight gives an estimated blood volume of 175 ml. Accordingly, 89 mg of BK analog was injected to make the 175 ml plasma sample 1 mM. Depending upon the size of the animal, 75 to 90 mg peptide was injected. Blood samples were collected at 2, 4, 6, 8, 10, 20, 30, 40, 60, 90, and 120 minute intervals after infusion into a 0.013 M sodium citrate anticoagulant solution. Plasma was prepared from each of the blood samples collected over time by centrifugation of the blood samples at 10,00 xg for two minutes. Aliquots of the plasmas were assayed for the presence of the BK analog SEQ ID NO:19 antigen by the ELISA technique using a MARKIT-M [1-5] BK assay from Dainippon Pharmaceutical Co., Ltd., Osaka, Japan.
On the technique in general: ELISA stands for enzyme-linked immunosorbent assay.

The nature of data set [2]: observations in rabbits after bolus injection. Particulars: single iv bolus. In kind it is in vivo, New Zealand white rabbits. The procedure:
as §1, §2

The next data set relates to washed platelets. Put plainly: 125I-α-thrombin binding to platelets. Particulars: peptide 1 mM. Further details: species or system human. The procedure: Gel filtered platelets were placed into polypropylene tubes and diluted with Hepes-Tyrode's buffer, containing 2 mM CaCl2 and 50 μM ZnCl2 and additions, to a final concentration of 2×10^8 platelets/ml. The reaction was started by the addition of 1 nM ^125 I-α-thrombin, which was prepared by using the iodogen technique as reported by Meloni et al., J. Biol. Chem. 266, 6786 (1991). Incubations were performed at 37° C. for specified times with various additions. After incubation, 50 μl aliquots were removed in triplicate for each experimental point and placed in polypropylene microcentrifuge tubes with an extended tip containing 200 μl of an oil mixture which consisted of 1 part Apiezon A oil to 9 parts of n-butylphthalate (Gustafson et al., J. Clin. Invest. 78, 810 (1986)), and centrifuged at room temperature for 2 min at 10,900× g in a microcentrifuge. (Model E, Beckman Instruments, Palo Alto, Calif.) The supernatant was removed and the tips amputated for placement in the gamma counter. The radioactivity present in the cell pellet was determined with an LKB Rack Gamma Counter (LKB Instruments, Inc., Gaithersburg, Md.). Nonspecific binding was measured in the presence of a 100-fold molar excess of α-thrombin.

Where [3] appears, read: aggregation and secretion not distinguished, read-out: IC50, inhibition of α-thrombin-induced platelet activation.
Setting [4] is: washed platelets, α-thrombin 1 nM, read-out: IC50 AGGREGATION (inhibition of α-thrombin-induced platelet aggregation).
Where [5] appears, read: washed platelets, α-thrombin 1 nM, read-out: IC50 SECRETION (inhibition of α-thrombin-induced platelet secretion).

pIC50: −log10 of the molar value. Read-outs that look alike come from different tables or passages of the source. Ends that are not written are not given here.

Take `CC[C@H](C)[C@H](NC(=O)[C@H](CCCNC(=N)N)NC(=O)[C@H](CO)NC(=O)[C@H](CO)NC(=O)[C@H](CCCNC(=N)N)NC(=O)[C@H](Cc1ccccc1)NC(=O)[C@@H]1CCCN1C(=O)[C@H](CO)NC(=O)[C@H](Cc1ccccc1)NC(=O)CNC(=O)[C@@H]1CCCN1C(=O)[C@@H]1CCCN1C(=O)[C@H](CCCNC(=N)N)NC(=O)[C@H](CCCCN)NC(=O)[C@@H](N)CCSC)C(=O)NCC(=O)O` [SEQ ID NO:14]: the pIC50 in the data set with human platelets was 3.52.
Arg-Pro-Pro-Gly (RPPG) [SEQ ID NO:20]: in the data set on platelets, the inhibition of aggregation is given as 95% and the inhibition of secretion came out at 25%.
Consider “RPPGF [SEQ ID NO:19, Arg-Pro-Pro-Gly-Phe]”, for which, at α-thrombin, the “cleavage product peak 2, share of non-treated NAT12 peak area” value is given as 26% and the “cleavage product peak 3, share of non-treated NAT12 peak area” value stood at 31%. Further, the “reduction of NAT12 peak 1 area after α-thrombin” value at α-thrombin (one hour 37° C.) amounted to 57%. For the same compound, in data set [1] (Rabbit 2, renal arteries ligated), the “effect of ligating renal arteries on half-life” value was “did not lengthen the half-life”. For the same compound, in data set [1] (single iv bolus), the “half-life of antigen clearance in plasma” value is 6.6 min. For the same compound, the “peak plasma concentration after infusion” value in data set [1] (single iv bolus, two minutes after infusion) was 0.120 mM. In data set [1] (single iv bolus, two of three rabbits, ELISA), the peak plasma concentration after infusion is 60 µg/mL. In data set [2], the “bleeding at the surgical sites of cutdowns and intubations” value was “no abnormal bleeding”; the blood pressure result is recorded as “remained stable”; the platelet count entry was “remained stable”; the pulse entry was “remained stable”. The “unfavorable effects following the bolus injection” value in data set [2] is reported as “No unfavorable effects were observed”.
Regarding “SEQ ID NO:5: scrambled peptide having the amino acids of SEQ ID NO:19 (FPRPG) [reference compound]”, in the data set with platelets, the inhibition of aggregation entry was “did not inhibit” and the inhibition of secretion result is listed as “did not inhibit”.
In the data set with platelets, “SEQ ID NO:6: scrambled peptide having the same amino acid count as SEQ ID NO: 14 (FSGPKRSPIMGRPSFR) [reference compound]” yielded an inhibition of aggregation of 26% and an inhibition of secretion of 8%.
With “SEQ ID NO:7: BK analog of the mid or carboxy terminal regions of BK (FSPFRSS)”, the figures for the pIC50 with platelets (setting [3]), in the data set with platelets (setting [4]) and in the data set on platelets (setting [5]) were at most 2.70, 2.70 and under 2.70, respectively.
For the compound “SEQ ID NO:8: BK analog that encompasses all or a portion of the native BK sequence (GFSPFRSSRIG)”, the pIC50 was 3.07 in the data set on platelets (setting [4]) and under 2.70 in the data set on platelets (setting [5]). The “inhibition of 125I-α-thrombin binding to platelets” value with washed platelets was “did not block”.
Take “SEQ ID NO:9: scrambled peptide having the amino acids of SEQ ID NO:19 (GPFPR) [reference compound]”: in the data set on platelets, the inhibition of aggregation result is on record as “did not inhibit” and the inhibition of secretion entry was “did not inhibit”.
In the case of “SEQ ID NO:16: BK analog of the mid or carboxy terminal regions of BK (PPGFSP)”, the negative logarithm of the IC50 (pIC50) was at most 2.70 with platelets (setting [3]), under 2.52 in the data set with platelets (setting [4]) and under 2.70 with platelets (setting [5]).

The values above are taken from patent publication US6143719A, “Bradykinin analogs as selective thrombin inhibitors” (The Regents of the University of Michigan, priority 1996, dated 2000).
